From patent US7235674B2, “Substituted coumarins and quinolines and analogs as activators of caspases and inducers of apoptosis and the use thereof” (Cytovia, Inc., priority 2001, dated 2007) come the findings set out here.

Assay [1] deals with Human breast cancer cell line T-47D. The assay can be described thus: Caspase cascade activation assay (N-(Ac-DEVD)-N'-ethoxycarbonyl-R110 fluorogenic substrate) in T-47D cells. Type of assay: cell-based. The settings on record: T-47D cells, 24 h incubation; for EC50 / EC50 (nM) T-47D: caspase cascade activation potency; for Caspase activity (Ratio) T-47D: ratio of net RFU of test compound to control, 3 h substrate reading. How it is done: (§1) Human breast cancer cell lines T-47D and ZR-75-1 were grown according to media component mixtures designated by American Type Culture Collection +10% FCS (Invitrogen Corporation), in a 5% CO2 −95% humidity incubator at 37° C. T-47D and ZR-75-1 cells were maintained at a cell density between 30 and 80% confluency at a cell density of 0.1 to 0.6×10^6 cells/mL. Cells were harvested at 600×g and resuspended at 0.65×10^6 cells/mL into appropriate media +10% FCS. An aliquot of 45 μl of cells was added to a well of a 96-well microtiter plate containing 5 μl of a 10% DMSO in RPMI-1640 media solution containing 0.16 to 10 μM of 3-cyano-7-methoxy-4-(3-bromo-4,5-dimethoxyphenyl)-2-oxo-2H-chromene (Example 1) or other test compound (0.016 to 1 μM final). An aliquot of 45 μl of cells was added to a well of a 96-well microtiter plate containing 5 μl of a 10% DMSO in RPMI-1640 media solution without test compound as the control sample. The samples were mixed by agitation and then incubated at 37° C. for 24 h in a 5% CO2 −95% humidity incubator. After incubation, the samples were removed from the incubator and 50 μl of a solution containing 20 μM of N-(Ac-DEVD)-N′-ethoxycarbonyl-R110 fluorogenic substrate (SEQ ID NO:1) (Cytovia, Inc.; WO99/18856), 20% sucrose (Sigma), 20 mM DTT (Sigma), 200 mM NaCl (Sigma), 40 mM Na PIPES buffer pH 7.2 (Sigma), and 500 μg/ml lysolecithin (Calbiochem) was added. The samples were mixed by agitation and incubated at room temperature. Using a fluorescent plate reader (Model 1420 Wallac Instruments), an initial reading (T=0) was made approximately 1-2 min after addition of the substrate solution, employing excitation at 485 nm and emission at 530 nm, to determine the background fluorescence of the control sample. After the 3 h incubation, the samples were read for fluorescence as above (T=3 h).
(§2) The Relative Fluorescence Unit values (RFU) were used to calculate the sample readings as follows: RFU(T=3 h)−Control RFU(T=0)=Net RFU(T=3 h)
(§3) The activity of caspase cascade activation was determined by the ratio of the net RFU value for 3-cyano-7-methoxy-4-(3-bromo-4,5-dimethoxy-phenyl)-2-oxo-2H-chromene, or other test compound, to that of control samples. The EC50 (nM) was determined by a sigmoidal dose-response calculation (Prism 2.0, GraphPad Software Inc.).

Assay [2] concerns Human breast cancer cell line ZR-75-1. The assay can be described thus: Caspase cascade activation assay (N-(Ac-DEVD)-N'-ethoxycarbonyl-R110 fluorogenic substrate) in ZR-75-1 cells. The format is cell-based. The settings on record: ZR-75-1 cells, 24 h incubation; for EC50 / EC50 (nM) ZR-75-1: caspase cascade activation potency; for Caspase activity (Ratio) ZR-75-1: ratio of net RFU of test compound to control, 3 h substrate reading. How it is done:
as §1, §2, §3

For `COc1ccc2c(-c3cc(Br)c(OC)c(OC)c3)c(C#N)c(=O)oc2c1` [Example 1, 3-Cyano-7-methoxy-4-(3-bromo-4,5-dimethoxyphenyl)-2-oxo-2H-chromene], the half-maximal effective concentration (EC50) in assay [1] (Homo sapiens, T47D) was found to be 257 nM; in assay [2] (Homo sapiens) it was 97 nM. Moreover, in assay [1], the “Caspase activity (Ratio) T-47D” value is 6.2. In addition, the “Caspase activity (Ratio) ZR-75-1” value in assay [2] is 4.2.

Regarding `COc1cc(OC)cc(-c2c(C#N)c(=O)oc3cc(OC)ccc23)c1` [Example 2, 3-Cyano-7-methoxy-4-(3,5-dimethoxyphenyl)-2-oxo-2H-chromene], the EC50 in assay [1] (Homo sapiens, T47D) was found to be 44 nM; in assay [2] (Homo sapiens), 11 nM. The “Caspase activity (Ratio) T-47D” value in assay [1] was determined as 4.1. Moreover, the “Caspase activity (Ratio) ZR-75-1” value in assay [2] is listed as 5.4.

As for `N#Cc1c(-c2ccccc2)c2ccccc2oc1=N` [Example 3, 3-Cyano-2-imino-4-phenyl-2H-chromene], in assay [1], the “EC50 (nM) T-47D” value is listed as “Inactive” and the “Caspase activity (Ratio) T-47D” value is reported as “Inactive”. Also, in assay [2], the “EC50 (nM) ZR-75-1” value is on record as “Inactive” and the “Caspase activity (Ratio) ZR-75-1” value is recorded as “Inactive”.

As to `N#Cc1c(-c2ccccc2)c2ccccc2oc1=O` [Example 4, 3-Cyano-4-phenyl-2-oxo-2H-chromene], in assay [1], the “EC50 (nM) T-47D” value is “Inactive” and the “Caspase activity (Ratio) T-47D” value was “Inactive”. In assay [2], the “EC50 (nM) ZR-75-1” value was “Inactive” and the “Caspase activity (Ratio) ZR-75-1” value is on record as “Inactive”.

`COc1cccc(C2=c3ccc4c(c3OC(=O)C2C#N)C=CN=4)c1` (centres unmarked) [Example 5, 3-Cyano-4-(3-methoxyphenyl)-2-oxo-2H-pyrrolo[2,3-h]chromene]: the EC50 in assay [1] (Homo sapiens, T47D) amounted to 200 nM; in assay [2] (Homo sapiens) it was 111 nM. In addition, the “Caspase activity (Ratio) T-47D” value in assay [1] was determined as 2.0. Also, in assay [2], the “Caspase activity (Ratio) ZR-75-1” value is 10.4.

Consider `N#Cc1c(-c2ccccc2)c2ccccc2[nH]c1=O` [Example 6, 3-Cyano-4-phenyl-quinolin-1H-2-one], for which, in assay [1], the midpoint of the response, the EC50, lay at 4800 nM and the “Caspase activity (Ratio) T-47D” value was found to be 9.1. Also, in assay [2], the midpoint of the response, the EC50, lay at 882 nM and the “Caspase activity (Ratio) ZR-75-1” value was found to be 10.6.

Turning to `COc1cccc(-c2c(C#N)c(=O)[nH]c3cc(Cl)ccc23)c1` [Example 8, 7-Chloro-3-cyano-4-(3-methoxy-phenyl)-quinolin-1H-2-one], in assay [1], it took 1170 nM to reach a half-maximal effect (EC50) and the “Caspase activity (Ratio) T-47D” value is given as 4.1. In assay [2], the concentration for a half-maximal effect (EC50) worked out at 878 nM and the “Caspase activity (Ratio) ZR-75-1” value came to 10.1.

In the case of `COc1ccc2c(-c3cc(Br)c(OC)c(OC)c3)c(C#N)c(=O)[nH]c2c1` [Example 9, 4-(3-Bromo-4,5-dimethoxy-phenyl)-3-cyano-7-methoxy-quinolin-1H-2-one], in assay [1], the midpoint of the response, the EC50, lay at 4410 nM and the “Caspase activity (Ratio) T-47D” value stood at 4.4. Moreover, in assay [2], the 50% effective concentration (EC50) was 2050 nM and the “Caspase activity (Ratio) ZR-75-1” value was 7.4.

`COc1cc(OC)cc(C2=c3ccc4c(c3OC(=O)C2C#N)C=CN=4)c1` (centres unmarked) [Example 16, 4-(3,5-Dimethoxyphenyl)-3-cyano-2-oxo-2H-pyrrolo[2,3-h]chromene]: the EC50 in assay [1] (Homo sapiens, T47D) was determined as 106 nM; in assay [2] (Homo sapiens), 174 nM. For the same compound, the “Caspase activity (Ratio) T-47D” value in assay [1] was found to be 3.1. In assay [2], the “Caspase activity (Ratio) ZR-75-1” value is recorded as 3.6.

For `COc1cccc(-c2c(C#N)c(=O)oc3cc(OC)ccc23)c1` [Example 17, 3-Cyano-4-(3-methoxy-phenyl)-7-methoxy-2-oxo-2H-chromene], the EC50 was found to be 99.7 nM in assay [1] (Homo sapiens, T47D) and 43.4 nM in assay [2] (Homo sapiens). Further, the “Caspase activity (Ratio) T-47D” value in assay [1] was determined as 8.9. In addition, in assay [2], the “Caspase activity (Ratio) ZR-75-1” value stood at 11.7.

Consider `COc1cc(-c2c(C#N)c(=O)oc3cc(N)ccc23)cc(Br)c1OC` [Example 18, 7-Amino-4-(3-bromo-4,5-dimethoxyphenyl)-3-cyano-2-oxo-2H-chromene], for which the half-maximal effective concentration (EC50) turned out to be 1490 nM in assay [1] (Homo sapiens, T47D) and 320 nM in assay [2] (Homo sapiens). Besides, the “Caspase activity (Ratio) T-47D” value in assay [1] is on record as 2.2. In addition, the “Caspase activity (Ratio) ZR-75-1” value in assay [2] came out at 7.1.

On to `COc1cc(-c2c(C#N)c(N)nc3c2CCc2ccccc2-3)cc(Br)c1OC` [Example 19, 2-Amino-4-(3-bromo-4,5-dimethoxyphenyl)-3-cyano-5,6-dihydro-benzo[h]quinoline], for which the EC50 came to 4060 nM in assay [1] (Homo sapiens, T47D) and 556 nM in assay [2] (Homo sapiens). Further, the “Caspase activity (Ratio) T-47D” value in assay [1] stood at 5.4. In addition, the “Caspase activity (Ratio) ZR-75-1” value in assay [2] came out at 7.9.

For `COc1cc(-c2cc3c(c4c2=C(C#N)C(=O)O4)OC(C)(C)CC=3)cc(Br)c1OC` [Example 20, 4-(3-Bromo-4,5-dimethoxyphenyl)-3-cyano-7,8-dihydro-8,8-dimethyl-2-oxo-2H-furo[3,2-h]chromene], in assay [1], the “EC50 (nM) T-47D” value is “Inactive” and the “Caspase activity (Ratio) T-47D” value was determined as 1.6. This compound yielded a concentration for a half-maximal effect (EC50) in assay [2] (Homo sapiens) of 1000 nM. The “Caspase activity (Ratio) ZR-75-1” value in assay [2] was 3.1.

Take `COc1cc(-c2c(C#N)c(=O)oc3cc(N(C)C)ccc23)cc(Br)c1OC` [Example 21, 3-Cyano-7-dimethylamino-4-(3-bromo-4,5-dimethoxyphenyl)-2-oxo-2H-chromene]: the EC50 in assay [1] (Homo sapiens, T47D) worked out at 546 nM; in assay [2] (Homo sapiens), 279 nM. In addition, in assay [1], the “Caspase activity (Ratio) T-47D” value is given as 5.8. Moreover, the “Caspase activity (Ratio) ZR-75-1” value in assay [2] stood at 9.1.

As for `COc1cc(OC)cc(-c2c(C#N)c(=O)oc3cc(N)ccc23)c1` [Example 22, 7-Amino-3-cyano-4-(3,5-dimethoxyphenyl)-2-oxo-2H-chromene], in assay [1], the “EC50 (nM) T-47D” value is listed as “Inactive” and the “Caspase activity (Ratio) T-47D” value was determined as 1.5. Further, the half-maximal effective concentration (EC50) in assay [2] (Homo sapiens) was 400 nM. Moreover, the “Caspase activity (Ratio) ZR-75-1” value in assay [2] was found to be 3.4.

Take `COc1cc(OC)cc(-c2c(C#N)c(=O)oc3cc(N(C)C)ccc23)c1` [Example 23, 3-Cyano-7-dimethylamino-4-(3,5-dimethoxyphenyl)-2-oxo-2H-chromene]: the EC50 in assay [1] (Homo sapiens, T47D) was determined as 456 nM; in assay [2] (Homo sapiens), 429 nM. For the same compound, the “Caspase activity (Ratio) T-47D” value in assay [1] was found to be 2.3. In addition, in assay [2], the “Caspase activity (Ratio) ZR-75-1” value turned out to be 7.2.

As for `COc1ccc(OC)c(C2=c3ccc4c(c3OC(=O)C2C#N)C=CN=4)c1` (centres unmarked) [Example 24, 3-Cyano-4-(2,5-dimethoxyphenyl)-2-oxo-2H-pyrrolo[2,3-h]chromene], the concentration giving a half-maximal response (EC50) in assay [1] (Homo sapiens, T47D) amounted to 585 nM; in assay [2] (Homo sapiens), 405 nM. For the same compound, in assay [1], the “Caspase activity (Ratio) T-47D” value is 4.5. Besides, the “Caspase activity (Ratio) ZR-75-1” value in assay [2] is on record as 7.1.

With `CNc1ccc2c(-c3cc(Br)c(OC)c(OC)c3)c(C#N)c(=O)oc2c1` [Example 25, 4-(3-Bromo-4,5-dimethoxy-phenyl)-3-cyano-7-methylamino-2-oxo-2H-chromene], the EC50 stood at 1090 nM in assay [1] (Homo sapiens, T47D) and 356 nM in assay [2] (Homo sapiens). The “Caspase activity (Ratio) T-47D” value in assay [1] is given as 4.9. In addition, the “Caspase activity (Ratio) ZR-75-1” value in assay [2] is on record as 6.1.

For `COc1cc(-c2c(C#N)c(=N)oc3cc(N)ccc23)cc(Br)c1OC` [Example 26, 7-Amino-4-(3-bromo-4,5-dimethoxy-phenyl)-3-cyano-2-imino-2H-chromene], in assay [1], the “EC50 (nM) T-47D” value is on record as “Inactive” and the “Caspase activity (Ratio) T-47D” value was 1.9. Moreover, the response in assay [2] (Homo sapiens) was half-maximal at 2770 nM (EC50). Besides, the “Caspase activity (Ratio) ZR-75-1” value in assay [2] came out at 8.8.

In assay [1] (Homo sapiens, T47D), `COc1cc(-c2c(C#N)c(=O)oc3cc(Cl)ccc23)cc(Br)c1OC` [Example 28, 4-(3-Bromo-4,5-dimethoxy-phenyl)-7-chloro-3-cyano-2-oxo-2H-chromene] returned an EC50 of 2960 nM. In assay [1], the “Caspase activity (Ratio) T-47D” value is given as 2.2.

For the compound `COc1cccc(-c2c(C#N)c(=N)sc3cc(OC)ccc23)c1` [Example 30, 2-Imino-3-cyano-7-methoxy-4-(3′-methoxy-phenyl)-2H-thiochromene], in assay [1], the “EC50 (nM) T-47D” value is listed as “Inactive” and the “Caspase activity (Ratio) T-47D” value was “Inactive”. In assay [2], the “EC50 (nM) ZR-75-1” value is given as “Inactive” and the “Caspase activity (Ratio) ZR-75-1” value is on record as “Inactive”.

In turn, `COc1cc(-c2c(C#N)c(=N)oc3cc(N(C)C)ccc23)cc(Br)c1OC` [Example 31, 2-Imino-3-cyano-7-dimethylamino-4-(3-bromo-4,5-dimethoxyphenyl)-2H-chromene] came in with a half-maximal effective concentration (EC50) in assay [1] (Homo sapiens, T47D) of 2500 nM.

By EC50 is commonly meant the concentration at which the effect is half-maximal.
